Assay results from patent US9649392B2, “Central nervous system labelling composition for intranasal administration and labelling method and screening method using central nervous system labelling composition for intranasal administration” (CANON KABUSHIKI KAISHA, priority 2009, dated 2017).

System: central nervous system of the zebrafish
Assay: dyeing of the central nervous system of juvenile zebrafish after exposure to dye solution, fluorescence/confocal microscope observation over time
Type: in vivo
Conditions: 7 dpf juvenile zebrafish; for dyeing of nerve cells of the central nervous system: confocal microscope; for dyed state of the central nervous system (transfer of dyeability with time from nasal cavity via olfactory bulb): left 1 hour, washed, observed at time intervals
Procedure: Distilled water was added to a 1 mg/mL DMSO solution of compound 1 (as expressed by the formula (5) above) to obtain a dye solution 1 containing the compound 1 to a concentration of 200 ng/mL. 1 mL of the dye solution 1 and a 7-day-old (7 dpf) juvenile fish of zebrafish were put into an arbitrarily selected well of a 24-hole multi plate (available from IWAKI) and left there for an hour. Thereafter, the dye solution 1 in the well was removed and an operation of replacing it with 1 mL of distilled water was repeated three times in ten minutes. The elapsed time after the last solution replacing operation was measured and the juvenile fish was taken out from the well when a predetermined time period had elapsed. The juvenile fish was buried in 5% low melting-point agarose gel on a glass slide to restrict any movement and the dyed state of the central nervous system of the zebrafish was observed from a lateral side and the vertex by using fluorescent microscope (MZ16FA: available from Leica). The central nervous system was observed by means of a confocal microscope (Pascal Exciter: available from Zeiss). After the observation, the zebrafish was returned into the well and repeatedly observed thereafter at regular time intervals. […]

| Structure (SMILES) | dyeing of nerve cells of the central nervous system (dye solution 500 ng/mL) | dyed state of the central nervous system (transfer of dyeability with time from nasal cavity via olfactory bulb) (dye solution 500 ng/mL) | dyeing of nerve cells of the central nervous system (dye solution 200 ng/mL) | dyed state of the central nervous system (transfer of dyeability with time from nasal cavity via olfactory bulb) (dye solution 200 ng/mL) |
| --- | --- | --- | --- | --- |
| CCN1c2ccc(/C=C/C3=[N+](CC)c4ccc(OC)cc4C34CCCCC4)cc2C2CCCC21 (stereo not drawn) [compound 3] | nerve cells of the central nervous system were also dyed | firstly the nasal cavity, then the olfactory bulb and finally the central nervous system were sequentially dyed | – | – |
| CC/N=c1\cc2oc3cc(NCC)c(C)cc3c(-c3ccccc3C(=O)OCC)c-2cc1C [compound 2] | nerve cells of the central nervous system were also dyed | firstly the nasal cavity, then the olfactory bulb and finally the central nervous system were sequentially dyed | – | – |
| CCN1/C(=C\C=C\C2=[N+](CC)c3ccccc3C23CCCCC3)C2(CCCCC2)c2ccccc21 [compound 1] | – | – | nerve cells of the central nervous system were also dyed | firstly the nasal cavity, then the olfactory bulb and finally the central nervous system were sequentially dyed |
